A short description of this data set: Solubility in solvents. Format: physicochemical.

Consider 1 compound from US9533937B2, “Use of metal scavengers for removal of ruthenium residues” (Apeiron Synthesis S.A., priority 2013, dated 2017).

Each structure is given as a SMILES string.

In the case of `[C-]#[N+]CC(=O)[O-].[K+]` [CNCH2CO2K], the solubility in solvents entry is “well soluble only in very polar solvents such as water and alcohols”.
